Reference: ChEMBL document CHEMBL1137456, “The synthesis and biological activity of pentafluorosulfanyl analogs of fluoxetine, fenfluramine, and norfenfluramine” (Bioorg Med Chem, 2007)

Legend:
Assay type in all cases: cell-based
Conditions in all cases: COS-7
[1] = molecular target: 5-hydroxytryptamine receptor 7 (Homo sapiens) (UniProt P34969); assay: Inhibition of human 5HT7 expressed in COS7 cells at 10 uM
[2] = molecular target: T1, 5-hydroxytryptamine receptor 2C (Rattus norvegicus) (UniProt P08909); assay: Inhibition of rat 5HT2C expressed in COS7 cells at 10 uM
T1 sequence (whole entry): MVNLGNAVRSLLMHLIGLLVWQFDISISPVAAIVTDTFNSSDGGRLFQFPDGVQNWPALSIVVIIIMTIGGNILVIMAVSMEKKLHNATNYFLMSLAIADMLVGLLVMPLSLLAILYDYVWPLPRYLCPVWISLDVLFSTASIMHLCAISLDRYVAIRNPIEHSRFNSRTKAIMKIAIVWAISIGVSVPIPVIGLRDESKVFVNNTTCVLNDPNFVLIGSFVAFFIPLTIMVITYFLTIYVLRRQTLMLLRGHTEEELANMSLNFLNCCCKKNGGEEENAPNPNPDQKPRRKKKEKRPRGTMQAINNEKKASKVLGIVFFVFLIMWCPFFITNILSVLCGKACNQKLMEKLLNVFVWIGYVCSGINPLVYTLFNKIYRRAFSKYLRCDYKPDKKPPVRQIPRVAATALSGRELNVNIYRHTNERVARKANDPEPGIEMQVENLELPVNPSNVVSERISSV

[3] = molecular target: 5-hydroxytryptamine receptor 1B (Homo sapiens) (UniProt P28222); assay: Inhibition of human 5HT1B expressed in COS7 cells at 10 uM
[4] = molecular target: T2, 5-hydroxytryptamine receptor 3A (Homo sapiens) (UniProt P46098); assay: Inhibition of human 5HT3 expressed in COS7 cells at 10 uM
T2 sequence (whole entry): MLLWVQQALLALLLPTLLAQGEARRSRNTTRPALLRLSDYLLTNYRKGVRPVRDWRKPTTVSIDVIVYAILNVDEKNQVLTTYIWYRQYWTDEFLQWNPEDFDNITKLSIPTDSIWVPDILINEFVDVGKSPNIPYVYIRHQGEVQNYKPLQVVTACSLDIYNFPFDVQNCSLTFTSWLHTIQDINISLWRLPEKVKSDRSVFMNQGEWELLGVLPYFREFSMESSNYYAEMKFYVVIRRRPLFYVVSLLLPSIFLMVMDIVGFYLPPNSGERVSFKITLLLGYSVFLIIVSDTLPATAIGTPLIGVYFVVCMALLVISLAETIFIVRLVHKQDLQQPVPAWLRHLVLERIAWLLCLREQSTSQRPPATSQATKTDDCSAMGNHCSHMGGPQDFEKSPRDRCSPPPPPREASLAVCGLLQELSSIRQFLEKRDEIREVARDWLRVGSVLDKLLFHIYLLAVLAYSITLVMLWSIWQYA

[5] = molecular target: T3, 5-hydroxytryptamine receptor 1A (Homo sapiens) (UniProt P08908); assay: Inhibition of human 5HT1A expressed in COS7 cells at 10 uM
T3 sequence (whole entry): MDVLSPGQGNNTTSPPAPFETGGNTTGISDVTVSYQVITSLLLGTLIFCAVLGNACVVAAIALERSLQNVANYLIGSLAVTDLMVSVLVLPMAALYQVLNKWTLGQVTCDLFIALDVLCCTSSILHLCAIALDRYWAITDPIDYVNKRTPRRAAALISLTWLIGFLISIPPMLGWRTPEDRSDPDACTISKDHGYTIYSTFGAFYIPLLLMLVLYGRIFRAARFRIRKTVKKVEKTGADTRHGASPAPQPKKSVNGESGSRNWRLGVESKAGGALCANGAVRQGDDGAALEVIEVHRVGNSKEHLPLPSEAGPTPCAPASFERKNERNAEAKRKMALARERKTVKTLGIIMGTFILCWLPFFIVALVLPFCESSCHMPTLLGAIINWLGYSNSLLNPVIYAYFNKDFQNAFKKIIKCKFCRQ

[6] = molecular target: 5-hydroxytryptamine receptor 2A (Rattus norvegicus) (UniProt P14842); assay: Inhibition of rat 5HT2A expressed in COS7 cells at 10 uM
[7] = molecular target: 5-hydroxytryptamine receptor 6 (Homo sapiens) (UniProt P50406); assay: Inhibition of human 5HT6 expressed in COS7 cells at 10 uM
[8] = molecular target: 5-hydroxytryptamine receptor 2B (Homo sapiens) (UniProt P41595); assay: Inhibition of human 5HT2B expressed in COS7 cells at 10 uM
[9] = molecular target: 5-hydroxytryptamine receptor 5A (Homo sapiens) (UniProt P47898); assay: Inhibition of human 5HT5A expressed in COS7 cells at 10 uM
[10] = molecular target: 5-hydroxytryptamine receptor 1D (Homo sapiens) (UniProt P28221); assay: Inhibition of human 5HT1D expressed in COS7 cells at 10 uM
[11] = molecular target: 5-hydroxytryptamine receptor 1E (Homo sapiens) (UniProt P28566); assay: Inhibition of human 5HT1E expressed in COS7 cells at 10 uM
Chain of 5-hydroxytryptamine receptor 1E (Homo sapiens) (P28566 whole entry): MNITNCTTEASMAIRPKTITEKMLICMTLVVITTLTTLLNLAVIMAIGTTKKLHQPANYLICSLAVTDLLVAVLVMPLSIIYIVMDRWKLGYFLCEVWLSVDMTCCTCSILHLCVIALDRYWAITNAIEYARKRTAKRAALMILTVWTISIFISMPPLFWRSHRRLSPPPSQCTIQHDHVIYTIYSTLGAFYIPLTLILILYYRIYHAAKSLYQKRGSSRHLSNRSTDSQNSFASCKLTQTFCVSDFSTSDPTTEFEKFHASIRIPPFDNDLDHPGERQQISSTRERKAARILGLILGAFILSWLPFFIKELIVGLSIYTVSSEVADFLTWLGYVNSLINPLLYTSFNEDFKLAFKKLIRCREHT

Chain of 5-hydroxytryptamine receptor 5A (Homo sapiens) (P47898 whole entry): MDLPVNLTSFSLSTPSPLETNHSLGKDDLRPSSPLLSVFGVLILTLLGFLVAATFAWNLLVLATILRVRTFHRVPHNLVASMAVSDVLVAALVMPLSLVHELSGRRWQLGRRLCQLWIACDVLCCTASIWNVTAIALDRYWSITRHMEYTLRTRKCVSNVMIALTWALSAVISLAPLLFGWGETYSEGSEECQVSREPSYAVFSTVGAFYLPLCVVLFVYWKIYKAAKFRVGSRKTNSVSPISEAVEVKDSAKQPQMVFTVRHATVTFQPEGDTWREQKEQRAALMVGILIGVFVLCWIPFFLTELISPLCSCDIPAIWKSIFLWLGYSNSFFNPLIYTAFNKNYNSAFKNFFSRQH
Chain of 5-hydroxytryptamine receptor 1D (Homo sapiens) (P28221 whole entry): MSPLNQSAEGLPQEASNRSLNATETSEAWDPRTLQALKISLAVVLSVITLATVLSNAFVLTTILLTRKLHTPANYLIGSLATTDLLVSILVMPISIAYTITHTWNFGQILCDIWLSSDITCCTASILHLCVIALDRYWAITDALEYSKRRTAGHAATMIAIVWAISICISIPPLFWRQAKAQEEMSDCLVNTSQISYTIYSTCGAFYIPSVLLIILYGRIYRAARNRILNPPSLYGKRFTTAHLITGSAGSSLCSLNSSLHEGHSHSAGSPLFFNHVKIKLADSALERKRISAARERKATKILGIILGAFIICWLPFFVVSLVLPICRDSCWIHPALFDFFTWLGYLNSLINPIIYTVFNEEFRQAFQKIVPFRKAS
Chain of 5-hydroxytryptamine receptor 6 (Homo sapiens) (P50406 whole entry): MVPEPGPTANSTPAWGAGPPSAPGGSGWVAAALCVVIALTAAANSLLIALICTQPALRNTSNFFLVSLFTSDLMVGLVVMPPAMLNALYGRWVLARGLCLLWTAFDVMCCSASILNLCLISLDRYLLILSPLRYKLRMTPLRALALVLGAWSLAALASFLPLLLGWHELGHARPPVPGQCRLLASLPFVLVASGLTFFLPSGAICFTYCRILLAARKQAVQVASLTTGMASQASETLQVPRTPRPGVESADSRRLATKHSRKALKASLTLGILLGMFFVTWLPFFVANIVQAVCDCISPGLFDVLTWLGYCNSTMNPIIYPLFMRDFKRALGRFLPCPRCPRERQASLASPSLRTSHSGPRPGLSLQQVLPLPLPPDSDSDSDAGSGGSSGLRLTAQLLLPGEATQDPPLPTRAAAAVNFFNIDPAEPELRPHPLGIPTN
Chain of 5-hydroxytryptamine receptor 1B (Homo sapiens) (P28222 whole entry): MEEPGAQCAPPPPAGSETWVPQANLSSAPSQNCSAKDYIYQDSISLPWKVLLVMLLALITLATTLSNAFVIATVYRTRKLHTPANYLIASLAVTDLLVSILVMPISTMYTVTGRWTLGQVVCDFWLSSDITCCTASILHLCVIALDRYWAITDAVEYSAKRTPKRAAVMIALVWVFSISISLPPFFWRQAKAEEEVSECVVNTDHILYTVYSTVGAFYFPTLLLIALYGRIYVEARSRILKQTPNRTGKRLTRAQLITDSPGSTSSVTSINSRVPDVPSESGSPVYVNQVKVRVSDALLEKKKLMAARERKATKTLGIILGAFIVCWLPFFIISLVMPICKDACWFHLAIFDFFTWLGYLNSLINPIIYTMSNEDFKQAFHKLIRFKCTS
Chain of 5-hydroxytryptamine receptor 7 (Homo sapiens) (P34969 whole entry): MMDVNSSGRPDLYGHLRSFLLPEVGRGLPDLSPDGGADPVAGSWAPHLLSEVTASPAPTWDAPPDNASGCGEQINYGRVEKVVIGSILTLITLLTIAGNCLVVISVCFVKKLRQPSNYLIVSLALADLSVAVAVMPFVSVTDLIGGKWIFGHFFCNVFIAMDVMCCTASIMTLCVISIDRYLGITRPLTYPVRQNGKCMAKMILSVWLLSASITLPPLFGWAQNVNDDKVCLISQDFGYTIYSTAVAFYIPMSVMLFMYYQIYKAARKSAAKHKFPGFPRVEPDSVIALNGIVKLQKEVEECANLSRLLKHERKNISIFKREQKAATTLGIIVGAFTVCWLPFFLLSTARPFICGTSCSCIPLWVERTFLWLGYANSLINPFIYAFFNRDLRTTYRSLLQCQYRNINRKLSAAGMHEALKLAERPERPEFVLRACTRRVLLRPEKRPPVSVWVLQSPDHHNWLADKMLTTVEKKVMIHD
Chain of 5-hydroxytryptamine receptor 2B (Homo sapiens) (P41595 whole entry): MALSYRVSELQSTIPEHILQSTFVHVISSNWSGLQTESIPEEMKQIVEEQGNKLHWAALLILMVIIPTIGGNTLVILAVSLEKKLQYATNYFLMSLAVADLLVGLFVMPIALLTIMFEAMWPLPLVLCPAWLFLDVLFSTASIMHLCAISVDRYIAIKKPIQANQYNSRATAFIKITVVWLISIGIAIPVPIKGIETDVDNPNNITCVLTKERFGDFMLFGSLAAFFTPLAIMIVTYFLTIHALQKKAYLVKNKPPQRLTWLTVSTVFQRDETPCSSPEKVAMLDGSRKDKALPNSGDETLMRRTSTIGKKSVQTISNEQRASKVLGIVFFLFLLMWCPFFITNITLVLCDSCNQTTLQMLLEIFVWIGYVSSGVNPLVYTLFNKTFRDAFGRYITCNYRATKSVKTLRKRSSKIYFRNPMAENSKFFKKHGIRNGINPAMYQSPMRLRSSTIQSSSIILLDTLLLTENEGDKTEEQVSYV
Chain of 5-hydroxytryptamine receptor 2A (Rattus norvegicus) (P14842 whole entry): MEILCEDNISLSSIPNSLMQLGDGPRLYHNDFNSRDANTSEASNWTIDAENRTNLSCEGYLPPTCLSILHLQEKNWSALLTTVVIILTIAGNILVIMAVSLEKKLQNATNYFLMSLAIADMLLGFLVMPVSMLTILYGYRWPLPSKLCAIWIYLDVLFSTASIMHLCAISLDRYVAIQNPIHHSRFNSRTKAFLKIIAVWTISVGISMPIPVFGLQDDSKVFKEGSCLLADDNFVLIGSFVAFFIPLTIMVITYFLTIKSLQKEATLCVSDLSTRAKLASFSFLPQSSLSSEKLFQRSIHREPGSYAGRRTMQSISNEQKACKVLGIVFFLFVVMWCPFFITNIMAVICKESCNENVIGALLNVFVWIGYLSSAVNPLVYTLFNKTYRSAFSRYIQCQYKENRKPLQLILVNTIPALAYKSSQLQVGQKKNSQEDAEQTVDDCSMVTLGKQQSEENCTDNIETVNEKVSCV

Compound | inhibition [1] [%] | inhibition [2] [%] | inhibition [3] [%] | inhibition [4] [%] | inhibition [5] [%] | inhibition [6] [%] | inhibition [7] [%] | inhibition [8] [%] | inhibition [9] [%] | inhibition [10] [%] | inhibition [11] [%]
CC(N)Cc1cccc(S(F)(F)(F)(F)F)c1 (stereo not drawn) | 50 | 94.6 | 62.9 | -6.1 | 50 | 85.9 | 50 | 89.6 | 31.3 | 73.7 | 23.4
CCNC(C)Cc1cccc(S(F)(F)(F)(F)F)c1 (stereo not drawn) | 50 | 72.8 | 63.5 | 14.6 | 85.5 | 53.2 | 50 | 85.3 | 62.7 | 15.2 | 7.3
CNCCC(Oc1ccc(S(F)(F)(F)(F)F)cc1)c1ccccc1 (stereo not drawn) | 12 | 75.8 | 3.4 | 6.8 | -3 | 97.3 | 1.5 | 71.9 | 25 | 12.7 | 77.8
